{"source": "patent US10059733B2", "about": "(NUCORION PHARMACEUTICALS, INC., priority 2014, dated 2018)", "key": {"[1]": {"assay": "TC50 assay in Huh7 cells, 48 h (CellTiter 96)", "conditions": "human", "experimental": "(§1) Huh7 cells were maintained at 37° C. in a humidified atmosphere at 5% CO2 in DMEM containing 10% FBS. […] The cells were then treated with each compound at concentrations ranging from 500 μM to 0 μM in triplicate in DMEM media containing 2% FBS and 0.5% DMSO and without phenol red. After 48 h of treatment at 37° C., the relative number of living cells in each well was determined by using the CellTiter 96 system (Promega) according to the manufacturer's instructions. The 3-(4,5-dimethylthiazol-2-yl)-5-(3-carboxymethoxyphenyl)-2-(4-sulfophenyl)-2H-tetrazolium (MTS) and phenazine methosulfate (PMS) reagents were added to each well of the 96-well plate and the plate was incubated at 37° C. for approximately 2 h. The absorbance at 490 nm and 650 nm in each well was then determined by using a Flexstation 3 microplate reader ([…]). The absorbance determined at 650 nm was then subtracted from the absorbance determined at 490 nm to correct for light scattering. The corrected absorbance values representing the relative number of live cells in each condition were then plotted as a function of compound concentration, and the data were then fit to the following sigmoidal Emax equation by using Kaleidagraph: y=(Emax*x^Slope)/(TC50^Slope+x^Slope) where y is the relative corrected absorbance value, Emax is the maximum relative inhibition, x is the compound concentration, TC50 is the concentration of the compound at which the total cell population is reduced by 50%, and Slope is the slope of the curve.\nThe data in Table 1 were determined for cells exposed to drug for 48 h. The IC50 is the concentration of each compound necessary to inhibit the replication of the HCV luciferase replicon to 50%. “TC50,” refers to toxic concentration necessary to reduce the cell population by 50%. All compounds were purified by HPLC."}, "[2]": {"test_system": "HEPG2", "assay": "TC50 assay with human cancer cell lines, 96 h: HEPG2", "type": "cell-based", "conditions": "HepG2, 96 h, read-out: TC50 HEPG2 (μM)", "quoted_text": "(§3) Huh7 cells were maintained at 37° C. in a humidified atmosphere at 5% CO2 in DMEM containing 10% FBS. […] The cells were then treated with each compound at concentrations ranging from 500 μM to 0 μM in triplicate in DMEM media containing 2% FBS and 0.5% DMSO and without phenol red. After 48 h of treatment at 37° C., the relative number of living cells in each well was determined by using the CellTiter 96 system (Promega) according to the manufacturer's instructions. The 3-(4,5-dimethylthiazol-2-yl)-5-(3-carboxymethoxyphenyl)-2-(4-sulfophenyl)-2H-tetrazolium (MTS) and phenazine methosulfate (PMS) reagents were added to each well of the 96-well plate and the plate was incubated at 37° C. for approximately 2 h. The absorbance at 490 nm and 650 nm in each well was then determined by using a Flexstation 3 microplate reader (Molecular Dynamics). The absorbance determined at 650 nm was then subtracted from the absorbance determined at 490 nm to correct for light scattering. The corrected absorbance values representing the relative number of live cells in each condition were then plotted as a function of compound concentration, and the data were then fit to the following sigmoidal Emax equation by using Kaleidagraph: y=(Emax*x^Slope)/(TC50^Slope+x^Slope) where y is the relative corrected absorbance value, Emax is the maximum relative inhibition, x is the compound concentration, TC50 is the concentration of the compound at which the total cell population is reduced by 50%, and Slope is the slope of the curve.\n(§4) Huh7, HEPG2, HEK293, MCF-7 and BxPC3 cell lines were maintained at 37° C. in a humidified atmosphere at 5% CO2 in DMEM containing 10% FBS. […] The cells were then treated with each compound at concentrations ranging from 500 μM to 0 μM in triplicate in DMEM media containing 2% FBS and 0.5% DMSO and without phenol red."}, "[3]": {"test_system": "PK9 cells", "assay": "Cell transport: cytotoxicity in PK9 cells with or without ENT1 inhibitor NBTI", "conditions": "Homo sapiens, PK9, 48 h", "experimental": "as §1\nTo this end, Huh7 cells or PK9 cells were seeded in 96-well plates at a density of 5,000 cells/well or 2,500 cells/well, respectively, and the plates were incubated at 37° C. for 24 h to allow for cell attachment. The media was then removed from the plates and replaced with media containing 2% FBS, 0.5% DMSO and 10 μM NBTI. […] Subsequently, the cells were treated with each compound at final concentrations ranging from 500 μM to 0 μM in triplicate in media containing 2% FBS, 0.5% DMSO and 10 μM NBTI. […] The TC50 values of each compound in the presence or absence of the ENT1 inhibitor were then compared."}, "[4]": {"test_system": "PK9 cells", "assay": "TC50 assay in PK9 cells, 48 h", "conditions": "Homo sapiens, PK9, 48 h, read-out: TC50 (μM) in PK9 cells at 48 hr", "experimental": "as §1\nPK9 and RPK9 cells were maintained at 37° C. in a humidified atmosphere at 5% CO2 in Roswell Park Memorial Institute (RPMI) media containing 10% FBS. […] The cells were then treated with each compound at concentrations ranging from […] to 0 μM in triplicate in RPMI media containing 2% FBS and 0.5% DMSO and without phenol red. […] The RPK9 cells were derived from the parental PK9 cell line, and are deficient for dCK activity due to the partial deletion of the dCK gene."}, "[5]": {"test_system": "BxPC3", "assay": "TC50 assay with human cancer cell lines, 96 h: BxPC3", "type": "cell-based", "conditions": "BXPC-3, 96 h, read-out: TC50 BxPC3 (μM)", "quoted_text": "as §3, §4"}, "[6]": {"test_system": "Huh7", "assay": "TC50 assay with human cancer cell lines, 96 h: Huh7", "type": "cell-based", "conditions": "Huh-7, 96 h, read-out: TC50 Huh7 (μM)", "quoted_text": "as §3, §4"}, "[7]": {"test_system": "HCV luciferase replicon", "assay": "Isobologram analysis of synergism with antiviral compound in HCV luciferase replicon", "type": "cell-based", "experimental": "Isobologram analysis was conducted to assess the potential synergistic interaction of representative disclosed compounds with representative antiviral compounds. The isobolgram analysis was conducted as previously described by Chou and Talalay (see Chou T. C. and Talalay P. “Analysis of combined drug effects: a new look at a very old problem.” Trends Pharmacol Sci 1983; 4:450-4; and Chou T. C. and Talalay P. “Quantitative analysis of dose-effect relationships: the combined effects of multiple drugs or enzyme inhibitors.” Adv Enzyme Regul 1984; 22:27-55; both of which are incorporated herein by reference in their entirety). The definitions of synergism are those described by Chou (see Chou, T. C. (2006) Theoretical basis, experimental design, and computerized simulation of synergism and antagonism in drug combination studies. Pharmacol Rev. 58(3):621-81, which is incorporated herein by reference in its entirety).\nIn the synergism studies described herein, the antiviral compound shown in Table 6 was assessed in combination with a representative disclosed compound, Compound 1."}, "[8]": {"test_system": "genotype 1a HCV", "assay": "Oral administration to HCV-infected chimpanzees, viral load (genotype 1a)", "type": "in vivo, chimpanzee", "experimental": "(§2) Via oral gavage, two HCV-infected chimpanzees I (male, 56.49 kg and 11 years old; genotype 1b HCV) and II (male, 61.91 kg and 34 years old; genotype 1a HCV) each received a single dosage of 200 mg of Compound 1 in Formulation I while the HCV-infected chimpanzee III (male, 56.19 kg and 18 years old; genotype 1a HCV) was administered a single dosage of 260 mg of the non-phosphorylated analog of Compound 1 (Table 1) in Formulation I. After 12 hours, the HCV viral titer decreased from 24,100 to 10,200 IU/ml (or 58% drop) in Chimpanzee I, from 38,500 to 27,000 IU/ml (or 30% drop) in Chimpanzee II, and from 154,000 to 142,000 IU/ml (or 8% drop) in Chimpanzee III. […] All animals were fasted overnight prior to dosing and a minimum of 2 hours prior to scheduled blood sample collections. Viral load determinations were performed on plasma samples using the HCV TaqMan assay (COBAS® AmpliPrep/COBAS® TaqMan® HCV Test, Version 2, Test Code 1220) for quantitative analysis. […] There were no adverse effects, illness, nor distress seen with the three chimpanzees during the study requiring veterinarian intervention."}, "[9]": {"assay": "Tolerability of single oral dosage in HCV-infected chimpanzees", "type": "in vivo, chimpanzee", "conditions": "single oral dosage 200 mg", "experimental": "as §2"}, "[10]": {"conditions": "Compound 1 0.2 nM + BMS-790052 0.010 nM"}, "[11]": {"conditions": "Compound 1 0.4 nM + BMS-790052 0.008 nM"}, "[12]": {"conditions": "Compound 1 7.1 nM + BMS-790052 0.006 nM"}, "[13]": {"conditions": "Compound 1 14.2 nM + BMS-790052 0.004 nM"}}}
{"smiles": "CCCC(CCC)C(=O)Nc1ccn([C@@H]2O[C@H](CO[P@@](=O)(N[C@@H](C)C(=O)OC(C)C)Oc3ccccc3)[C@@H](O)C2(F)F)c(=O)n1", "note": "[Compound 1, (S)-isopropyl 2-(((S)-(((2R,3R,5R)-4,4-difluoro-3-hydroxy-5-(2-oxo-4-(2-propylpentanamido)pyrimidin-1(2H)-yl)tetrahydrofuran-2-yl)methoxy)(phenoxy)phosphoryl)amino)propanoate]", "values": [{"measurement": "CC50 at 48 h", "setting": "[1]", "value": "17.4 ± 3.4", "unit": "µM"}, {"measurement": "CC50", "setting": "[2]", "value": "1.31 ± 0.21", "unit": "µM"}, {"measurement": "CC50", "setting": "[3]; read-out: TC50 (μM) in PK9 cells at 48 h With NBTI", "value": 16.9, "unit": "µM"}, {"measurement": "CC50", "setting": "[3]; read-out: TC50 (μM) in PK9 cells at 48 h Without NBTI", "value": 25.2, "unit": "µM"}, {"measurement": "CC50", "setting": "[4]", "value": "25.2 ± 13.6", "unit": "µM"}, {"measurement": "CC50", "setting": "[5]", "value": "7.01 ± 0.97", "unit": "µM"}, {"measurement": "CC50", "setting": "[6]", "value": "3.28 ± 0.57", "unit": "µM"}, {"measurement": "Combination Index", "setting": "[7]; [10]", "value": 0.505}, {"measurement": "level of synergism", "setting": "[7]; [10]", "value": "synergism"}, {"measurement": "Combination Index", "setting": "[7]; [11]", "value": 0.410}, {"measurement": "level of synergism", "setting": "[7]; [11]", "value": "synergisn"}, {"measurement": "Combination Index", "setting": "[7]; [12]", "value": 0.468}, {"measurement": "level of synergism", "setting": "[7]; [12]", "value": "synergism"}, {"measurement": "Combination Index", "setting": "[7]; [13]", "value": 0.535}, {"measurement": "level of synergism", "setting": "[7]; [13]", "value": "synergism"}, {"measurement": "Combination Index", "setting": "[7]; Compound 1 42.3 nM, BMS-790052 0 nM", "value": 1.000}, {"measurement": "interaction of Compound 1 with BMS-790052 in the inhibition of the HCV luciferase replicon", "setting": "[7]; co-treatment with NS5A inhibitor BMS-790052", "value": "synergism"}, {"measurement": "concentration of the single agent on the IC50 isobologram (Combination Index 1.000)", "setting": "[7]; compound alone, other compound 0 nM", "value": 42.3, "unit": "nM"}, {"measurement": "drop of HCV viral titer after 12 hours", "setting": "[8]; Chimpanzee II, single oral dosage 200 mg", "value": 30, "unit": "%"}, {"measurement": "HCV viral titer after 12 hours", "setting": "[8]; Chimpanzee II, single oral dosage 200 mg in Formulation I, titer before 38,500 IU/ml", "value": "27,000 IU/ml"}, {"measurement": "effectiveness in inhibiting HCV in chimpanzees (comparison)", "setting": "[8]; single oral dosage, 12 hours", "value": "more effective than its non-phosphorylated analog"}, {"measurement": "tolerability", "setting": "[9]", "value": "well tolerated"}]}
